Where two headings read alike, the source gives them in different places.
Columns and labels:
Corneal Kindled rats = tested on: Corneal Kindled rats; parameters: ED50 (reduction from Stage 5 to Stage 4): unit not given beside the values; details: cited from earlier work; for ED50 (reduction from Stage 5 to Stage 4): data provided by the ADD Program
[1] = tested on: Maximal electroshock seizures; assay: MES maximal electroshock seizure test, mice ip; assay type: in vivo; parameters: TPE (time of peak effect), activity: unit not given here; details: for responders at 100 mg/kg / responders at 10 mg/kg: read-out: MES, animals protected/tested (converted); for responders at 300 mg/kg / responders at 3 mg/kg: read-out: MES, animals protected/tested; for anti-MES protecting ability: Phase I
Experimental: Three tests were performed:
1. MES--Electroshock Seizure Test
(§1) Maximal electroshock seizures are elicited with a 60-cycle alternating current of 50 mA intensity (5-7 times that necessary to elicit minimal electroshock seizures) delivered via corneal electrodes for 0.2 seconds. A drop of 0.9% saline is instilled in the eye prior to application of the electrodes in order to […].

in vivo [2] = details: mouse, in vivo
Experimental: The first phase of the ADD Program involved performing tests on male Carworth Farms #1 mice. […] Three tests were performed:
In the second phase of the ADD program protocol, estimates of anticonvulsant activity and neurotoxicity are quantified. The median effective dose (ED50) in the MES, sc Met, and rotorod test is determined. In the case of a compound with apparent activity in only one anticonvulsant test, testing is carried out in the other up to, and in some cases beyond, doses which produce neurological deficit. Compounds which fail to produce minimal neurological deficit are tested whenever possible to doses ten times their lowest anticonvulsant ED50. […] The rotorod ED50 is determined at the time of the peak neurologic deficit.

[3] = tested on: Maximal electroshock seizures; assay: Phase VI oral MES test, rats; assay type: in vivo; details: for ED50 / responders at 60 mg/kg / responders at 50 mg/kg: oral; for ED50: rat; for responders at 60 mg/kg / responders at 50 mg/kg: Rattus norvegicus, read-out: MES, animals protected/tested (converted)
Description: as §1
(§2) This oral screen is designated as phase VI.

in vivo [4] = details: rat, po
Description: as §2

seizures = assay: Anticonvulsant evaluation (ASP phase I / overall); assay type: in vivo, mice; details: for minimal effective dose: Mus musculus, ip, Phase I, read-out: ASP Classification
Procedure, shortened: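 Male Carworth Farms #1 mice; maximal electroshock seizures elicited by 60-cycle AC, 50 mA, 0.2 s via corneal electrodes after a drop of 0.9% saline in the eye. Animals observed for 30 minutes.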

Neurotoxicity, rats ip = details: 100 mg/kg
Experimental: The rotorod test is used to elevate neurotoxicity. The animal is placed on a 1 inch diameter knurled plastic rod rotating at 6 rpm. […] Neurologic toxicity is defined as the failure of the animal to remain on the rod for 1 minute and the results are expressed as the number of animals protected/the number of animals tested.
The toxicity evaluation for the commercial agents as previously indicated was based on the onset of ataxia.

[5] = tested on: Subcutaneous Pentylenetetrazol seizure; assay: sc Met subcutaneous pentylenetetrazol (Metrazol) seizure test, mice; assay type: in vivo; details: Mus musculus, sc, read-out: scMet, animals protected/tested (converted)
[6] = Mus musculus, ip, 0.5 h, 30 min
[7] = Mus musculus, ip, 0.5 h, Phase II, 0.50 h
[8] = Mus musculus, ip, 0.25 h, mice ip, 0.25 h
[9] = Mus musculus, ip, 0.5 h, mice ip, 0.50 h
[10] = Mus musculus, ip, 1 h, mice ip, 1.00 h
[11] = Mus musculus, ip, 2 h, mice ip, 2.00 h
[12] = Mus musculus, ip, 4 h, mice ip, 4.00 h

Q: For `O=C1NC(=O)C(c2ccccc2)(c2ccccc2)N1` [phenytoin, reference compound], which “ED50 (reduction from Stage 5 to Stage 4)” value (Corneal Kindled rats; ip, 0.5 h) is on record?
A: 48.25

Q: And the “activity in corneal kindling” value (Corneal Kindled rats; oral route)?
A: inactive

Q: And the “ED50 (reduction from Stage 5 to Stage 4)” value (Corneal Kindled rats; po, 0.5 h)?
A: > 100

Q: And the “TPE (time of peak effect), activity” value ([1]; Phase II, ip)?
A: 2

Q: And the “TPE (time of peak effect), toxicity” value (in vivo [2]; ip)?
A: 2

Q: And the ED50 ([3]; Phase VI)?
A: 29.8 mg/kg

Q: What about the TD50 (in vivo [4]) of the same compound?
A: > 3000 mg/kg

Q: For `O=C1CN=C(c2ccccc2Cl)c2cc([N+](=O)[O-])ccc2N1` [clonazepam], which “ED50 (reduction from Stage 5 to Stage 4)” value (Corneal Kindled rats; po, 1 h, 30 min) is on record?
A: 0.70

Q: What does the source list for `CC1(C)CC(=O)C=C(Nc2ccccc2)C1` [Compound 36]?
A: minimal effective dose (seizures): < 100 mg/kg; anticonvulsant activity (seizures; mouse, in vivo): potent anticonvulsants; responders at 100 mg/kg [1, 6]: 66.7%; responders at 300 mg/kg [1, 6]: 100%; responders at 100 mg/kg ([1]; Mus musculus, ip, 4 h, 4 h): 0%; responders at 300 mg/kg ([1]; Mus musculus, ip, 4 h, 4 h): 0%; ED50 ([1]; Mus musculus, Phase II, ip, time of peak effect): 109 mg/kg; TPE (time of peak effect), activity ([1]; Phase II, ip): 0.5; animals displaying neurotoxicity/tested (Neurotoxicity, rats ip; 0.25 h (Table X-A)): 5/8; animals displaying neurotoxicity/tested (Neurotoxicity, rats ip; 0.50 h (Table X-A)): 7/8; animals displaying neurotoxicity/tested (Neurotoxicity, rats ip; 1.00 h (Table X-A)): 6/8; animals displaying neurotoxicity/tested (Neurotoxicity, rats ip; 2.00 h (Table X-A)): 6/8; animals displaying neurotoxicity/tested (Neurotoxicity, rats ip; 4.00 h (Table X-A)): 3/8; animals displaying neurotoxicity/tested (Neurotoxicity, rats ip; 6.00 h (Table X-A)): 3/8; animals displaying neurotoxicity/tested (Neurotoxicity, rats ip; 24.00 h (Table X-A)): 0/8; protective index (in vivo [2]): modest; TD50 (in vivo [2]; ip): 233 mg/kg; TPE (time of peak effect), toxicity (in vivo [2]; ip): 0.5; selectivity ratio (in vivo [2]; ip): 2.13; ED50 ([3]; Phase VI): 30.1 mg/kg; anticonvulsant activity over time ([3]; Phase VI, rats): anticonvulsant activity is lost after 1 hour; responders at 60 mg/kg ([3]; 0.5 h, 0.50 h): 75%; responders at 60 mg/kg ([3]; 0.25 h): 75%; responders at 60 mg/kg ([3]; 1.00 h): 0%; responders at 60 mg/kg ([3]; 2.00 h): 0%; responders at 60 mg/kg ([3]; 4.00 h): 0%; TD50 (in vivo [4]): > 250 mg/kg; selectivity ratio (in vivo [4]): 8.3; Tox, animals toxic/tested (in vivo [4]; 60 mg/kg): 0/4; responders at 100 mg/kg ([5]; 0.5 h, 30 min): 0%; responders at 300 mg/kg ([5]; 0.5 h, 30 min): 0%; responders at 100 mg/kg ([5]; 4 h, 4 h): 0%; responders at 300 mg/kg ([5]; 4 h, 4 h): 0%

Q: For `COC(=O)C1C(=O)C=C(Nc2ccc(C(F)(F)F)cc2)CC1(C)C` (stereo not drawn) [Compound 121], which minimal effective dose (seizures) is on record?
A: < 100 mg/kg

Q: And the responders at 100 mg/kg [1, 6]?
A: 100%

Q: What about the responders at 300 mg/kg [1, 6] of the same compound?
A: 100%

Q: What about the responders at 3 mg/kg [1, 7] of the same compound?
A: 0%

Q: What about the responders at 10 mg/kg [1, 7] of the same compound?
A: 0%

Q: What about the responders at 100 mg/kg ([1]; Mus musculus, ip, 4 h, 4 h) of the same compound?
A: 100%

Q: And the responders at 300 mg/kg ([1]; Mus musculus, ip, 4 h, 4 h)?
A: 100%

Q: And the “Tox (rotorod), animals toxic/tested” value (in vivo [2]; 3 mg/kg)?
A: 0/4

Q: And the “Tox (rotorod), animals toxic/tested” value (in vivo [2]; 10 mg/kg)?
A: 0/4

Q: And the responders at 50 mg/kg ([3]; 0.5 h, 0.50 h)?
A: 75%

Q: What about the responders at 50 mg/kg ([3]; 0.25 h) of the same compound?
A: 75%

Q: What about the responders at 50 mg/kg ([3]; 1.00 h) of the same compound?
A: 100%

Q: And the responders at 50 mg/kg ([3]; 2.00 h)?
A: 100%

Q: And the “Tox, animals toxic/tested” value (in vivo [4]; 50 mg/kg)?
A: 0/4

Q: And the responders at 100 mg/kg ([5]; 0.5 h, 30 min)?
A: 0%

Q: What about the responders at 300 mg/kg ([5]; 0.5 h, 30 min) of the same compound?
A: 0%

Q: And the responders at 100 mg/kg ([5]; 4 h, 4 h)?
A: 0%

Q: And the responders at 300 mg/kg ([5]; 4 h, 4 h)?
A: 0%

Q: What does the source list for `CCOC(=O)C1C(=O)C=C(Nc2ccc(Br)cc2)CC1C` (stereo not drawn) [Compound 123]?
A: minimal effective dose (seizures): < 100 mg/kg; responders at 10 mg/kg [1, 8]: 75%; responders at 100 mg/kg [1, 6]: 100%; responders at 300 mg/kg [1, 6]: 100%; responders at 10 mg/kg [1, 9]: 75%; responders at 10 mg/kg [1, 10]: 75%; responders at 10 mg/kg [1, 11]: 50%; responders at 100 mg/kg ([1]; Mus musculus, ip, 4 h, 4 h): 66.7%; responders at 300 mg/kg ([1]; Mus musculus, ip, 4 h, 4 h): 100%; responders at 10 mg/kg [1, 12]: 0%; anti-MES protecting ability [1]: showed anti-MES protecting ability; Tox, animals toxic/tested (in vivo [2]; ip, 100 mg/kg): 0/8; responders at 50 mg/kg ([3]; 0.5 h, 0.50 h): 100%; responders at 50 mg/kg ([3]; 0.25 h): 100%; responders at 50 mg/kg ([3]; 1.00 h): 100%; responders at 50 mg/kg ([3]; 2.00 h): 100%; responders at 50 mg/kg ([3]; 4.00 h): 100%; Tox, animals toxic/tested (in vivo [4]; 50 mg/kg): 0/4; responders at 100 mg/kg ([5]; 0.5 h, 30 min): 0%; responders at 300 mg/kg ([5]; 0.5 h, 30 min): 0%; responders at 100 mg/kg ([5]; 4 h, 4 h): 0%; responders at 300 mg/kg ([5]; 4 h, 4 h): 0%

Q: Which “ED50, corneal kindling” value (Corneal Kindled rats; comparative commercial product) does the source give for `NC(=O)N1c2ccccc2C=Cc2ccccc21` [carbamazepine, reference compound] here?
A: 28.90 mg/kg

Q: What about the “ED50 (reduction from Stage 5 to Stage 4)” value (Corneal Kindled rats; po, 1 h, 30 min) of the same compound?
A: 28.90

Q: And the “TPE (time of peak effect), activity” value ([1]; Phase II, ip)?
A: 0.5

Q: What about the “TPE (time of peak effect), toxicity” value (in vivo [2]; ip) of the same compound?
A: 0.5

Q: What about the ED50 ([3]; Phase VI) of the same compound?
A: 8.5 mg/kg

Q: What does the source list for `CC1(C)CC(=O)C=C(Nc2ccc(N)cc2)C1` [Compound 142]?
A: minimal effective dose (seizures): < 100 mg/kg; responders at 100 mg/kg ([1]; Mus musculus, ip, 0.25 h, Phase II, 0.25 h): 50%; responders at 100 mg/kg [1, 6]: 0%; responders at 300 mg/kg [1, 6]: 100%; responders at 100 mg/kg ([1]; Mus musculus, ip, 1 h, Phase II, 1.00 h): 50%; responders at 100 mg/kg ([1]; Mus musculus, ip, 4 h, 4 h): 33.3%; responders at 300 mg/kg ([1]; Mus musculus, ip, 4 h, 4 h): 100%; Tox (rotorod), animals toxic/tested (in vivo [2]; 100 mg/kg): 0/2; responders at 50 mg/kg ([3]; 0.5 h, 0.50 h): 0%; responders at 50 mg/kg ([3]; 0.25 h): 0%; responders at 50 mg/kg ([3]; 1.00 h): 0%; responders at 50 mg/kg ([3]; 2.00 h): 0%; responders at 50 mg/kg ([3]; 4.00 h): 25%; Tox, animals toxic/tested (in vivo [4]; 50 mg/kg): 0/4; responders at 100 mg/kg ([5]; 0.5 h, 30 min): 0%; responders at 300 mg/kg ([5]; 0.5 h, 30 min): 0%; responders at 100 mg/kg ([5]; 4 h, 4 h): 0%; responders at 300 mg/kg ([5]; 4 h, 4 h): 0%

Q: What does the source list for `CCOC(=O)C1C(=O)C=C(Nc2ccc(Cl)cc2)CC1C` (stereo not drawn) [Compound 122]?
A: minimal effective dose (seizures): < 100 mg/kg; responders at 10 mg/kg [1, 8]: 75%; responders at 100 mg/kg [1, 6]: 100%; responders at 300 mg/kg [1, 6]: 100%; responders at 3 mg/kg [1, 7]: 0%; responders at 10 mg/kg [1, 7]: 25%; responders at 10 mg/kg [1, 9]: 75%; responders at 10 mg/kg [1, 10]: 100%; responders at 10 mg/kg [1, 11]: 25%; responders at 100 mg/kg ([1]; Mus musculus, ip, 4 h, 4 h): 0%; responders at 300 mg/kg ([1]; Mus musculus, ip, 4 h, 4 h): 100%; responders at 10 mg/kg [1, 12]: 25%; anti-MES protecting ability [1]: showed anti-MES protecting ability; Tox (rotorod), animals toxic/tested (in vivo [2]; 3 mg/kg): 0/4; Tox (rotorod), animals toxic/tested (in vivo [2]; 10 mg/kg): 0/4; responders at 50 mg/kg ([3]; 0.5 h, 0.50 h): 100%; responders at 50 mg/kg ([3]; 0.25 h): 75%; responders at 50 mg/kg ([3]; 1.00 h): 75%; responders at 50 mg/kg ([3]; 2.00 h): 100%; Tox, animals toxic/tested (in vivo [4]; 50 mg/kg): 0/4; responders at 100 mg/kg ([5]; 0.5 h, 30 min): 0%; responders at 300 mg/kg ([5]; 0.5 h, 30 min, second trial): 50%; responders at 300 mg/kg ([5]; 0.5 h, 30 min): 100%; responders at 100 mg/kg ([5]; 4 h, 4 h): 0%; responders at 300 mg/kg ([5]; 4 h, 4 h): 0%

— patent publication US5616615A, “Enaminone esters” (priority 1995, dated 1997)
